Measured values: PubChem BioAssay (NCI)
“And” between values parts separate entries of the source, which are not always exact repeats. Identical values can stand only once.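 1) Cells in 96-well plates. 2) Compound, 48 h, 5 concentrations. 3) Linear interpolation between surrounding doses. 4) Unreached endpoint = highest concentration. GI50: concentration for 50% inhibition of growth. Definition used: TGI = concentration required for complete inhibition of growth.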 Where a SMILES comes first, the peptide text is derived from it. The star is where a group is joined. Boc = CC(C)(C)OC(=O)*

Legend:
Experiment in all cases: growth of human tumour cells (NCI), 48 h
[1] = tested on: A498 renal
[2] = tested on: COLO 205 colon
[3] = tested on: HCT-15 colon
[4] = tested on: OVCAR-5 ovarian
[5] = tested on: SNB-19 CNS
[6] = tested on: ACHN renal
[7] = tested on: HT29 colon

SMILES	TGI [1]	TGI [2] [µM]	TGI [3] [µM]	TGI [4]	TGI [5]	TGI [6]	TGI [7] [µM]	GI50 [6] [µM]	GI50 [3] [µM]	GI50 [7] [µM]	GI50 [4]	GI50 [1]	GI50 [5]
Cc1[nH]c(=O)nc(NNCc2ccc(Cl)cc2)c1C(=O)Nc1ccc(Cl)cc1	> 100 µM	> 100	> 100	> 100 µM	> 100 µM	–	–	–	–	–	–	–	–
COC(=O)CC1c2ccccc2N2C(=O)Cc3c([nH]c4ccccc34)C12 (configuration not stated)	> 100 µM	> 100	> 100	> 100 µM	> 100 µM	> 100 µM	> 100	–	–	–	–	–	–
c1ccc([I+]c2ccccc2)cc1	> 100 µM	> 100	> 100	> 100 µM	> 100 µM	> 100 µM	> 100	–	–	–	–	–	–
NS(=O)(=O)c1ccc(/C=C/c2ccc(O)cc2)cc1	> 100 µM	35.3	> 100	> 100 µM	> 100 µM	7.75 µM	35.1	2.28	24.6	17.8	–	–	–
CCOC(=O)/C=C(/C)Nc1nc2c(c(C(=O)OC)c1C#N)CCCC2	> 100 µM	> 100	> 100	> 100 µM	> 100 µM	> 100 µM	> 100	–	–	–	–	–	–
CC(=O)Oc1ccc2c3c1O[C@H]1[C@H](O)CC[C@@]4(O)[C@@H](C2)N(C)CC[C@]314	> 100 µM	> 100	> 100	> 100 µM	> 100 µM	> 100 µM	> 100	–	–	–	–	–	–
Cc1nc2sccn2c1/C=C1/C(=O)Nc2cccc(Cl)c21	> 100 µM	> 100	> 100	> 100 µM	> 100 µM	> 100 µM	> 100	–	–	–	–	–	–
COC(=O)/C=C1/OC(c2ccc(OC)cc2)=C(Cl)C1=O	49.1 µM	23.7	33.9	31.6 µM	52.8 µM	31.8 µM	36.5	–	–	–	–	–	–
CCOP(=O)(OCC)OC1c2[nH]cc(C(=O)OCc3ccccc3)c2-c2cc(C(=O)OC)[nH]c2C1OC (configuration not stated)	> 100 µM	> 100	> 100	> 96.1 µM	> 100 µM	30.5 µM	> 48.4	–	–	–	–	–	–
O=C(NNC(=O)c1csc(NC(=S)NC2CCCCC2)n1)c1ccccc1	76.2 µM	20.1	13	76.3 µM	–	43.9 µM	21.3	–	–	–	–	–	–
O=C(N/N=C/c1ccccc1)c1cccc2nc3ccccc3nc12	> 100 µM	18	> 100	> 100 µM	> 100 µM	> 100 µM	> 100	–	–	–	–	–	–
C#CC1(O)CCCCCCCCC2(CCCCCCCC1)OCCO2	27.8 µM	33.2	39.1	37.8 µM	33 µM	27.3 µM	35.4	–	–	–	–	–	–
Cc1cccc(N/C(Sc2ccccc2)=C(/C(Cl)=C(Cl)Cl)[N+](=O)[O-])c1	40.6 µM	29	29.4	40.8 µM	> 100 µM	74.9 µM	43.1	–	–	–	–	–	–
Cc1cc(S(=O)(=O)/N=C(\[N-]S(=O)(=O)c2cc(Cl)sc2Cl)[n+]2ccc(N(C)C)cc2)c(S)cc1Cl	82.5 µM	–	> 100	> 100 µM	–	> 100 µM	> 100	–	–	–	–	–	–
CCOC(=O)c1nnc2c(C#N)c(-c3ccccc3)c(C)n2c1N	79.4 µM	> 100	> 100	> 100 µM	89.2 µM	> 100 µM	> 100	–	–	–	–	–	–
CCOC(=O)c1nc2ccc(C(F)(F)F)cc2nc1Oc1ccc(C(=O)OC)cc1	> 100 µM	> 100	> 100	–	> 100 µM	> 100 µM	> 100	–	–	–	–	–	–
Cc1cnc2[nH]c(-c3ccc4ccccc4c3)cc(=O)c2c1	–	18.6	21.7	> 100 µM	> 100 µM	> 100 µM	> 100	–	–	–	–	–	–
BrCC[N+]12CC[N+](CCBr)(CC1)C2	> 100 µM	> 100	> 100	> 100 µM	> 100 µM	> 100 µM	> 100	–	–	–	–	–	–
O=C(OCCNC(=O)N1CC1)OCCNC(=O)N1CC1	> 10 µM	> 10	> 10	> 10 µM	> 10 µM	> 10 µM	> 10	–	–	–	–	–	–
CC1=C(C)SC(=C2Sc3nc(O)[nH]c(=O)c3S2)S1	> 100 µM	> 100	> 100	> 100 µM	> 100 µM	> 100 µM	> 100	–	–	–	–	–	–
C=C1C[C@H](O)[C@H](Br)C(C)(C)C12CCC(C)(Cl)C(Br)C2 (some centres not stated)	–	2.29	19.3	4.25 µM	10.4 µM	14.8 µM	0.895	–	–	–	–	–	–
CCOc1cc2c(c(OCC)c1O)CC[C@@H]1[C@@H]2CC[C@]2(C)[C@@H](O)CC[C@@H]12	41.6 µM	55.3	14	> 100 µM	> 100 µM	57.4 µM	24.7	–	–	–	–	–	–
COc1cc2c(c(OC)c1OC)-c1ccc(SC)cc1C(O)CC2 (configuration not stated)	> 100 µM and 0.0742 µg/mL	0.179	–	> 100 µM	> 100 µM	> 100 µM and 97.9 µg/mL	–	–	–	–	0.249 µg/mL	–	–
COc1cc(OC)c2[nH]c3c(O)c(-c4c(C)cc5c([nH]c6c(OC)cc(OC)cc65)c4O)c(C)cc3c2c1	14.8 µM	–	16.9	16.2 µM	–	15.8 µM	14.8	–	8.28	8.03	9.03 µM	7.82 µM	–
COc1ccc(-c2c(C#N)c(S)n(NS(=O)(=O)c3ccccc3)c(=O)c2C#N)cc1	–	> 100	> 100	> 100 µM	> 100 µM	> 100 µM	> 100	–	–	–	–	–	–
COc1ccc2nc3cccc([N+](=O)[O-])c3c(NCCCO)c2c1	0.0435 µM and 0.0788 µM	–	–	0.0177 µM and 0.0148 µM	0.404 µM and 0.29 µM	–	0.00183	–	–	–	0.00181 µM	0.017 µM and 0.0275 µM	0.0159 µM and 0.0252 µM
ClCCCCCc1c2nc(c(CCCCCCl)c3ccc([nH]3)c(CCCCCCl)c3ccc([nH]3)c(CCCCCCl)c3nc1C=C3)C=C2	> 100 µM	> 100	> 100	> 100 µM	> 100 µM	> 100 µM	> 100	–	–	–	–	–	–
O=C1CC(=O)NC(=NNS(=O)(=O)c2ccc(Cl)cc2)N1	> 100 µM	> 100	> 100	> 100 µM	> 100 µM	> 100 µM	> 100	–	–	–	–	–	–

SMILES	TGI [1]	TGI [2] [µM]	TGI [3] [µM]	TGI [4]	TGI [5]	TGI [6]	TGI [7] [µM]	GI50 [6] [µM]	GI50 [3] [µM]	GI50 [7] [µM]	GI50 [4]	GI50 [1]	GI50 [5]
CCCCCCCCCCCCCCCCCCOCC(O)COP(=O)(O)OCC1OC(n2ccc(N)nc2=O)C(O)C1O (configuration not stated)	40.6 µM	29.5	47.9	> 100 µM	24.6 µM	> 100 µM	50.7	–	–	–	–	–	–
O=c1oc2c(Cl)cc(Cl)cc2cc1C1=CSC2=NCCN12	–	> 100	> 100	> 100 µM	> 100 µM	> 100 µM	> 100	–	–	–	–	–	–
O=C(c1cc2c(c3ccccc13)NC1(CCCCC1)N=C2C(F)(F)F)C(F)(F)F	20.8 µM	18.1	16.7	21.5 µM	18.7 µM	13.8 µM	13.4	–	–	–	–	–	–
COC(=O)[C@H](Cc1ccc(O)cc1)NC(=O)[C@H](Cc1ccc(O)cc1)NC(=O)OC(C)(C)C (Boc-Tyr-Tyr-OMe)	–	> 100	> 100	> 100 µM	> 100 µM	> 100 µM	> 100	–	–	–	–	–	–
CC1(C)N=C(C2CCCN2C(=O)OCc2ccccc2)OC1=O (configuration not stated)	> 100 µM	> 100	> 100	> 100 µM	> 100 µM	> 100 µM	> 100	–	–	–	–	–	–
COc1ccccc1C1c2cc3c(cc2OC(N2CCOCC2)C1C)OCO3 (configuration not stated)	–	–	41.5	41.1 µM	37.8 µM	> 100 µM	40.9	–	–	–	–	–	–
CCN1CN(c2ccccc2)C2(CCN(CC(CC3OCCO3)c3ccc(F)cc3)CC2)C1=O (configuration not stated)	9.51 µM	1.95	> 67.5	25.4 µM	> 92 µM	> 30.5 µM	5.69	–	–	–	–	–	–
O=C(N/N=C(/COc1ccccc1)N=Cc1cccnc1)c1ccncc1	> 100 µM	> 100	> 100	> 100 µM	> 100 µM	> 100 µM	> 100	–	–	–	–	–	–
COC(=O)CCC(NC(=O)OC(C)(C)C)C(=O)NC(Cc1ccc(NC(=O)CCCC(C)=O)cc1)C(=O)NC(CCC(=O)OC)C(=O)OC (configuration not stated)	> 100 µM	> 100	> 100	> 100 µM	> 100 µM	> 100 µM	> 100	–	–	–	–	–	–
Cc1ccc(C(=O)N/N=C(\N=Nc2ccc(C(=O)O)cc2)c2ccc(N(CCC#N)CCC#N)cc2C)cc1	> 100 µM	> 100	> 100	> 100 µM	> 100 µM	> 100 µM	> 100	–	–	–	–	–	–
O=C(Nc1ccc(Cl)cc1)c1cc(S(=O)(=O)Nc2nnc3c(Cl)cc(C(F)(F)F)cn23)c(S)cc1Cl	86.3 µM	> 100	> 100	> 100 µM	> 100 µM	> 100 µM	> 100	–	–	–	–	–	–
Cc1ccc(N(C)S(=O)(=O)c2ccccc2[N+](=O)[O-])cc1	–	> 100	> 100	> 100 µM	> 100 µM	> 100 µM	> 100	–	–	–	–	–	–
O=C(c1ccccc1)N1C(=S)N(c2ccccn2)C(=Nc2ccccc2)C1=Nc1ccccc1	> 100 µM	> 52.7	14.9	> 44.3 µM	> 96.2 µM	35.3 µM	> 100	–	–	–	–	–	–
CC(=O)OC(Cc1c(O)c2c(C)cccc2oc1=O)C(C)(C)O (configuration not stated)	> 100 µM	> 100	> 100	> 100 µM	> 100 µM	> 100 µM	> 100	–	–	–	–	–	–
CC(=O)N(C(C)=O)c1cc2c3c(c1)CCCN3CCC2	> 10 µM	> 10	> 10	> 10 µM	> 10 µM	> 10 µM	> 10	–	–	–	–	–	–
CC(Cl)CC(=O)OCC1CCCN2CCCCC12 (configuration not stated)	> 100 µM	> 100	> 100	> 100 µM	> 100 µM	> 100 µM	> 100	–	–	–	–	–	–
CNc1nc(C(N)=O)c(N)s1	> 100 µM	> 100	> 100	> 100 µM	> 100 µM	> 100 µM	> 100	–	–	–	–	–	–
Cc1n(Cc2ccccc2)nc2sc(N)n[n+]12	> 100 µM	> 100	> 100	> 100 µM	> 100 µM	> 100 µM	> 100	–	–	–	–	–	–
CC1C(C#N)(C#N)C(C#N)=C(N)C1(Cl)[N+](=O)[O-] (configuration not stated)	31.5 µM	18.5	13.1	29.6 µM	35 µM	23.7 µM	23.5	–	–	–	–	–	–
CCOC(=O)c1cccc(NC(=O)CI)c1	4.72 µM	1.86	–	3.07 µM	9.39 µM	1.99 µM	0.646	–	–	–	–	–	–
N#Cc1c(-c2ccccc2)c(CN2CCCCC2)c(=O)n2c1[nH]c1ccccc12	> 100 µM	64	> 100	> 100 µM	> 100 µM	> 100 µM	–	–	–	–	–	–	–
CCOC(=O)NN(C(=O)OCC)c1c(C)cc(C)cc1C	> 100 µM	> 100	> 100	> 100 µM	> 100 µM	–	> 100	–	–	–	–	–	–
CN(C)Cc1cc(N=Nc2ccc(Cl)cc2)cc(CN(C)C)c1O	29.8 µM	13.4	21	–	25.5 µM	19 µM	19	–	–	–	–	–	–
N#Cc1c(O)c(/C=N/c2ncccn2)c(=O)n2c1[nH]c1ccccc12	> 100 µM	> 100	> 100	> 100 µM	> 100 µM	–	> 100	–	–	–	–	–	–
CSc1nc2c(c(=O)[nH]1)N=C(c1ccccc1)CC(c1ccccc1)N2 (configuration not stated)	> 100 µM	> 100	–	> 100 µM	> 100 µM	75.3 µM	> 100	–	–	–	–	–	–
CNC1(C(=O)O)CC1	> 100 µM	–	> 100	> 100 µM	> 100 µM	> 100 µM	> 100	–	–	–	–	–	–
CC[C@@]1(O)C(=O)OCc2c1cc1n(c2=O)Cc2c-1nc1ccccc1c2/C=N/NC(=O)c1ccc(N)cc1	6.18 µM	> 100	> 100	> 100 µM	> 100 µM	–	> 100	–	–	–	–	–	–
